Calls of active or inactive are those of the source.
Tests used:
[1] = biological target: T1, DNA repair protein RAD52 homolog (Homo sapiens, UniProt P43351); assay type: functional, biochemical
T1 sequence (P43351 whole entry): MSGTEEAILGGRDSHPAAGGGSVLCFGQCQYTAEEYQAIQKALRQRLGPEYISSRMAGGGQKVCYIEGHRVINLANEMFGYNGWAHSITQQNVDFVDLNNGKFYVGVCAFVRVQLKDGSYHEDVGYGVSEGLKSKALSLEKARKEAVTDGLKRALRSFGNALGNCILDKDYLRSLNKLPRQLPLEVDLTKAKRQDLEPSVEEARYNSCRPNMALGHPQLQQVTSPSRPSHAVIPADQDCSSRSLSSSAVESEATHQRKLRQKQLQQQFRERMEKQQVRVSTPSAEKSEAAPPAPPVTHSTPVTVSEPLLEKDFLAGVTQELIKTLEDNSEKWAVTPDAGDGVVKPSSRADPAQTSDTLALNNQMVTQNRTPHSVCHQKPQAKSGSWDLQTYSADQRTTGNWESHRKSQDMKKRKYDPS

[2] = StAR promoter reporter inhibition counter-screen, dose response, counter-screen for LRH-1 inverse agonist project, cell-based, luminescence, luciferase reporter (AID 651969); assay type: functional
[3] = biological target: Nuclear receptor subfamily 5 group A member 2 (Homo sapiens, UniProt O00482); assay type: functional, cell-based;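 also: HEK293T cells transfected with LRH-1 and a StAR promoter luciferase reporter; potency for inhibitors that lower LRH-1 driven reporter light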
Nuclear receptor subfamily 5 group A member 2, sequence (O00482 whole entry): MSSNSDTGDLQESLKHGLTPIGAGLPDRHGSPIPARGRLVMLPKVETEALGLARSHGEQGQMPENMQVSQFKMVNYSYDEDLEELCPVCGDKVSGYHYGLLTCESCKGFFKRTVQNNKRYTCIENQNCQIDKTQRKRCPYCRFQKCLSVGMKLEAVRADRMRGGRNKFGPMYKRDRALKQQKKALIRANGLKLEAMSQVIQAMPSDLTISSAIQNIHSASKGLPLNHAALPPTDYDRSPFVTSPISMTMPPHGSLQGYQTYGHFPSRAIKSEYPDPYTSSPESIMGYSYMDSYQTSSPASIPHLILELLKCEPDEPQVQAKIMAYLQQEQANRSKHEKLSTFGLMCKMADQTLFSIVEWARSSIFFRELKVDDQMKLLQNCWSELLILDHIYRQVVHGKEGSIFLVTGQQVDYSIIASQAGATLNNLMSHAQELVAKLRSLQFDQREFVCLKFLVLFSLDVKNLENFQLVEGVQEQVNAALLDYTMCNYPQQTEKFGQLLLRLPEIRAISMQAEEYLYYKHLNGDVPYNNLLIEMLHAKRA

Steroidogenic factor 1 = Steroidogenic factor 1 (Homo sapiens, UniProt Q13285); test: Counterscreen for inverse agonists of the liver receptor homolog-1 (LRH-1; NR5A2): Luminescence-based cell-based high throughput dose response assay to identify inverse agonists of the Steroidogenic Factor 1 Nuclear Receptor (SF1; NR5A1).; assay type: functional
Steroidogenic factor 1, sequence (Q13285 whole entry): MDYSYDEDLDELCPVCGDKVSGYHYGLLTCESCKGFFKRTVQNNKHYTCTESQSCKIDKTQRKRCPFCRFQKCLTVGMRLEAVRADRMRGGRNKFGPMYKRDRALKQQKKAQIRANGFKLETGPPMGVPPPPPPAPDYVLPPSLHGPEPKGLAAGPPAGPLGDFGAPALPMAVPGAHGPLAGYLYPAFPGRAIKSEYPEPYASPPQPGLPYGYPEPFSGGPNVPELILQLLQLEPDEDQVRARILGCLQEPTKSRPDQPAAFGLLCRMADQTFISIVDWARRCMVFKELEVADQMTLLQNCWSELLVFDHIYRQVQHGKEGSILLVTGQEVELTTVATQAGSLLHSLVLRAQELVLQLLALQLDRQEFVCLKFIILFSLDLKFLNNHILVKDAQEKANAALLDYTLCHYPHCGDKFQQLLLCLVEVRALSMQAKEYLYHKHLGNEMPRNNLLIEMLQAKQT

[4] = NIH-3T3 fibroblast cytotoxicity, dose response, cytotoxicity control, cell-based, fluorescence, Alamar Blue, secondary assay (AID 2327); assay type: functional;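 also: NIH-3T3 mouse fibroblasts cultured with fluconazole at 8 µg/mL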
[5] = biological target: T2, Ubiquitin-conjugating enzyme E2 N (Homo sapiens, UniProt P61088); assay type: functional;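 also: Dose-response confirmation in a TR-FRET assay detecting UBC13-driven polyubiquitin chain formation, inhibition measured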
T2 sequence (P61088 whole entry): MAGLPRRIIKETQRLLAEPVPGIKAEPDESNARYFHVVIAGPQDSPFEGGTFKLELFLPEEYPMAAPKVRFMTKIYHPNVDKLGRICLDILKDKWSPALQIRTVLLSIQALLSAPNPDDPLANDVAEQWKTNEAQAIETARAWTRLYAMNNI

[6] = biological target: T3, Rac GTPase-activating protein 1 (Homo sapiens, UniProt Q9H0H5); test: MgcRacGAP GTPase-activating activity inhibitors, confirmation, biochemical, ADP Hunter fluorescence, primary and confirmatory (AID 624330); assay type: functional
T3 sequence (Q9H0H5 whole entry): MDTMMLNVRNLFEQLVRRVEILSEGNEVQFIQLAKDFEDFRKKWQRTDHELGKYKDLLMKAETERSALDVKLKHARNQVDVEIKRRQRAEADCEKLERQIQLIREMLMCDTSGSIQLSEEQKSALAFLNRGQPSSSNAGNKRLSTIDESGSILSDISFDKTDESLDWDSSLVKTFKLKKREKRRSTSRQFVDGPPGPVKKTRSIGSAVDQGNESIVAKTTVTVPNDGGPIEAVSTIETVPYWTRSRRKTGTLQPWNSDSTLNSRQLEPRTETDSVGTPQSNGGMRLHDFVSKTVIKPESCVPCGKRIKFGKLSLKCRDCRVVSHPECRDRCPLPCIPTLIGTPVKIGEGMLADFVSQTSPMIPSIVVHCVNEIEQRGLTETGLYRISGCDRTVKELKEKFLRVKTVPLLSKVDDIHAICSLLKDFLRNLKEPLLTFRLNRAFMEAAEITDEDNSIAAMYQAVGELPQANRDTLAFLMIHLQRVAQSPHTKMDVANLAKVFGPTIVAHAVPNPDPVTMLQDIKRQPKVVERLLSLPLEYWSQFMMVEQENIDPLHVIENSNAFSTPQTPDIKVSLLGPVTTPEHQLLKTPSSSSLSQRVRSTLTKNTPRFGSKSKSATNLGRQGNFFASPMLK

[7] = biological target: T4, Microphthalmia-associated transcription factor (Homo sapiens, UniProt O75030); test: TRPM1 promoter luciferase signal decrease, dose response, MITF inhibitor project, cell-based, SK-MEL-5, cherry-picked, set 3 (AID 493073); assay type: functional
T4 sequence (O75030 whole entry): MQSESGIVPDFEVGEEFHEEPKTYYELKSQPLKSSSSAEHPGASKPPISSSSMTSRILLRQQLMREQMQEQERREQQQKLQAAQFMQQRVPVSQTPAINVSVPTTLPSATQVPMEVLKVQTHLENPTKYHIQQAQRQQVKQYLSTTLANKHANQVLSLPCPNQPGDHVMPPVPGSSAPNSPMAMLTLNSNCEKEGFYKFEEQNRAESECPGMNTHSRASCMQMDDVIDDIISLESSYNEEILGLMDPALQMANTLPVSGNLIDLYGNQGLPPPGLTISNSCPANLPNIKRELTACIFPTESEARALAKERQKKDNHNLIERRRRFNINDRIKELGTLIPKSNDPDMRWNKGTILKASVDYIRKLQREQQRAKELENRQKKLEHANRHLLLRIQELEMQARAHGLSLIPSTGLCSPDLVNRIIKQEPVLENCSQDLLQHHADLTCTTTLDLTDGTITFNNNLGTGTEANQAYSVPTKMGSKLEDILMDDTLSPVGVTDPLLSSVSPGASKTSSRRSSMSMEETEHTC

Protein RecA = biological target: T5, Protein RecA (Mycobacterium tuberculosis, UniProt P9WHJ3); test: Fluorescence Cell-Free Homogeneous Dose Retest to Identify Inhibitors of RecA-Intein Splicing Activity. [Related pubchem assays (depositor defined):AID2097, AID2223, AID489010, AID492950]; assay type: functional
T5 sequence (P9WHJ3 whole entry): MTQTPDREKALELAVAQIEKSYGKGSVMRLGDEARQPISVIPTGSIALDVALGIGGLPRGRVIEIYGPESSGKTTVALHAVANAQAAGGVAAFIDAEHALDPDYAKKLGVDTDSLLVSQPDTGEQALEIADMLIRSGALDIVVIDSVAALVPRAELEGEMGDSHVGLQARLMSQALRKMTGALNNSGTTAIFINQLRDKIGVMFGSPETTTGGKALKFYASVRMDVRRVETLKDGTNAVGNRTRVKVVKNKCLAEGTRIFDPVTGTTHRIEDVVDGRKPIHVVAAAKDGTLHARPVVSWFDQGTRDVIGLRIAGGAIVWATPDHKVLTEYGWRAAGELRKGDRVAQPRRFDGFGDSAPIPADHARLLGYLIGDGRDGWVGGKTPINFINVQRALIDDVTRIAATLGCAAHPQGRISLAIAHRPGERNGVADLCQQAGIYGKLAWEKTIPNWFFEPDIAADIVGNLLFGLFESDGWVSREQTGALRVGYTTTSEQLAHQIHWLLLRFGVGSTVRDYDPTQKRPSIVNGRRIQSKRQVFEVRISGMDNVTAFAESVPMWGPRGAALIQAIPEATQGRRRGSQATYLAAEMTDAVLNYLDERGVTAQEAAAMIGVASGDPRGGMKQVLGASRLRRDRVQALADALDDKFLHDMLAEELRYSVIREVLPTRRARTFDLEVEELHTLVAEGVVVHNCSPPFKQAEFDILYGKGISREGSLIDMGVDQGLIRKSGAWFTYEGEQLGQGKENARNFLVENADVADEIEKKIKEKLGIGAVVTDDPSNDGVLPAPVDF

Nonstructural protein 1 = Nonstructural protein 1 (Influenza A virus, UniProt Q194T2); assay type: functional, Influenza A virus (A/California/07/2009(H1N1))
Nonstructural protein 1, sequence (Q194T2 whole entry): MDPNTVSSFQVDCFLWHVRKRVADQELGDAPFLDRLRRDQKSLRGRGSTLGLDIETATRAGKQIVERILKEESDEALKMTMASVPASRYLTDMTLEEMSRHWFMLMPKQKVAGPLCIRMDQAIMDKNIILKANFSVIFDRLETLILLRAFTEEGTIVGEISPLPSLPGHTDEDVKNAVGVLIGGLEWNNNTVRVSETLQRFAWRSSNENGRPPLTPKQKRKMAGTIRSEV

Large T antigen = Large T antigen (Simian virus 40, UniProt P03070); assay type: functional, Betapolyomavirus macacae;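 also: Confirmatory-stage PubChem screen for compounds that inhibit SV40 T antigen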
Large T antigen, sequence (P03070 whole entry): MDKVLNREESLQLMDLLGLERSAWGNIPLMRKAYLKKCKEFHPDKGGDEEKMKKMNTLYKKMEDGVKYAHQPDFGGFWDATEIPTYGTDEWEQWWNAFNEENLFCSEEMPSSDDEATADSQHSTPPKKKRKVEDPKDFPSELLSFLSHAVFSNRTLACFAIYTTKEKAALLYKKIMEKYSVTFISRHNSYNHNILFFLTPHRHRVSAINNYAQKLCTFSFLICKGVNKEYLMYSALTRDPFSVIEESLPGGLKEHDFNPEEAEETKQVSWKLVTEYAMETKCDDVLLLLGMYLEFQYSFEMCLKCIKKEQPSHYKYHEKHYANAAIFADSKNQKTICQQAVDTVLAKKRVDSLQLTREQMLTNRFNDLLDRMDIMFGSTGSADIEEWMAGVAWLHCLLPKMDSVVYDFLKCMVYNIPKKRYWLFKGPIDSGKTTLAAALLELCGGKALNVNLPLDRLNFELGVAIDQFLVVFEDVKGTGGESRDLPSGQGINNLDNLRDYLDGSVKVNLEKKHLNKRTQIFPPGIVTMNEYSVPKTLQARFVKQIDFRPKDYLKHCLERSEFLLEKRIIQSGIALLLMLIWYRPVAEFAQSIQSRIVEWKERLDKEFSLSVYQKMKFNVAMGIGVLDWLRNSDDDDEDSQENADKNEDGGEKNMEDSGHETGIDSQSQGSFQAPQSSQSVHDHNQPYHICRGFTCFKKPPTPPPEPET

[8] = HeLa cell cytotoxicity, dose response, cytotoxicity control for MgcRacGAP inhibitor project (AID 624300); assay type: functional
[9] = biological target: T6, Replicative DNA helicase DnaB (Mycobacterium tuberculosis, UniProt P9WMR3); test: DnaB intein splicing inhibitors, dose response, biochemical, cell-free fluorescence (AID 449749); assay type: functional
T6 sequence (P9WMR3 whole entry): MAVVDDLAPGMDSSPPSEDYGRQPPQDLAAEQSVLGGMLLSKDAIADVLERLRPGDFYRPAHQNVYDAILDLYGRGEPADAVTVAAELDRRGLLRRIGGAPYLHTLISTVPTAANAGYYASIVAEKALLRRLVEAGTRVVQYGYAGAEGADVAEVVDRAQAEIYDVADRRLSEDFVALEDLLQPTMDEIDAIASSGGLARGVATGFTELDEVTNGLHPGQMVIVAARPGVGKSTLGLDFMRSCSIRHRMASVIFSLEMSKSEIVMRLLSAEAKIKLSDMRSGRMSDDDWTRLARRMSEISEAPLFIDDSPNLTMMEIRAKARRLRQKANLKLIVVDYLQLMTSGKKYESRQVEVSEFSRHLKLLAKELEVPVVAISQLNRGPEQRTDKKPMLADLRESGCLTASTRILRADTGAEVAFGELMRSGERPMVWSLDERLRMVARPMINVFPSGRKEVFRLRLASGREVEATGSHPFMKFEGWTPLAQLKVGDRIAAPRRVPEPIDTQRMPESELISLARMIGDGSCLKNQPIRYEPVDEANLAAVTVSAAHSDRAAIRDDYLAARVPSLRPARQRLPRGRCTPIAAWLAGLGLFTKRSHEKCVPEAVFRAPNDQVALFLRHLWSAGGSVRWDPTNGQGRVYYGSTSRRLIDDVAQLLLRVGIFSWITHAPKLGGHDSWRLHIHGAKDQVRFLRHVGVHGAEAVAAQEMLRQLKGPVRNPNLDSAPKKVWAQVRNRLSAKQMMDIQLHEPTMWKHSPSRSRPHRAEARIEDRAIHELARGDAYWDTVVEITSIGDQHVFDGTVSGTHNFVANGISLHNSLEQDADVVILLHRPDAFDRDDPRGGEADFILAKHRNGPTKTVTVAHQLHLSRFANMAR

[10] = Luminescence Cell-Based Dose Confirmation HTS to Identify Inhibitors of Platelet Dense Granule Release. [Related pubchem assays: 1663 (Primary HTS), 1678 (Summary of Project)]; assay type: functional
[11] = biological target: Luciferin 4-monooxygenase (Photinus pyralis, UniProt P08659); test: firefly luciferase enzyme inhibitors, dose response, biochemical, luminescence (AID 1891)
Luciferin 4-monooxygenase, sequence (P08659 whole entry): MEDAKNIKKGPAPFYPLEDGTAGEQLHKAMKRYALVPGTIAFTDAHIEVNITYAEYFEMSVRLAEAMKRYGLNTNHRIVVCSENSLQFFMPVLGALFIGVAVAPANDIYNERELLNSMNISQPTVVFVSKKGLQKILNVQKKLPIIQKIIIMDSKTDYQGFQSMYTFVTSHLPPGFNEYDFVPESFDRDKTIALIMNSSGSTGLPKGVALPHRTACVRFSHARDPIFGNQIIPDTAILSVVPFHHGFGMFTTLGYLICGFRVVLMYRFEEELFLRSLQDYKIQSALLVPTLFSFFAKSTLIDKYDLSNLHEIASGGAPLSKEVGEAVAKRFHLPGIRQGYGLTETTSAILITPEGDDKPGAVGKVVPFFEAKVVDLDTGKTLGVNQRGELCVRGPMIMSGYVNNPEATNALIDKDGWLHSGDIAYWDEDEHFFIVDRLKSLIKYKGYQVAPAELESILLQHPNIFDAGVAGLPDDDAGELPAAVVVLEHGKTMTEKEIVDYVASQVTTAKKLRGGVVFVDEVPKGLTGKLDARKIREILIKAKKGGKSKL

[12] = biological target: Heat shock protein HSP 90-alpha (Homo sapiens, UniProt P07900); assay type: functional, organism-based
[13] = A Cell Based Secondary Assay To Explore Cytotoxicity of Compounds that Sensitize Mycobacterium Tuberculosis to Beta-Lactam Antibiotics.; assay type: functional
Paired box protein Pax-8 = Paired box protein Pax-8 (Homo sapiens, UniProt Q06710); test: inhibitors of PAX8-driven TPO luciferase reporter, dose response, RMG-I cells, cherry-pick (AID 687027); assay type: functional, cell-based;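 also: luciferase reporter driven by Pax8 target thyroperoxidase promoter measured by SteadyGlo luminescence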
Paired box protein Pax-8, sequence (Q06710 whole entry): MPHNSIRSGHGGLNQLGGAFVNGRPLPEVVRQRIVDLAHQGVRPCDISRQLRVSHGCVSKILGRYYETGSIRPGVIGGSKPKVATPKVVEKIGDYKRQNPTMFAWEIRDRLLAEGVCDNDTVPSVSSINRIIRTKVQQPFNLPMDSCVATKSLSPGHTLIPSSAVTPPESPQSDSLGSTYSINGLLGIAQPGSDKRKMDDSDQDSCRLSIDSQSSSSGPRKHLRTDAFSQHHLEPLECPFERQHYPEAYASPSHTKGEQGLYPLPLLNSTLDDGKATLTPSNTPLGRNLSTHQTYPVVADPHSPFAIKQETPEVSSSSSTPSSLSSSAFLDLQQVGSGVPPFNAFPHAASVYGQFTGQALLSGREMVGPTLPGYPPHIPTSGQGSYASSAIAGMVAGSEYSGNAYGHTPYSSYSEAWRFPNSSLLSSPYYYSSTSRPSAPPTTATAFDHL

| SMILES | AC50 [1] | IC50 [2] | IC50 [3] | IC50 (Steroidogenic factor 1) | other results |
| --- | --- | --- | --- | --- | --- |
| COc1ccc2c(c1O)-c1cccc3c1[C@@H](C2)N(C)CC3 | 10.7 µM (active) |  |  |  |  |
| COc1ccc(C2(C)NC(=O)N(CC(=O)Nc3ccc(C)cc3Br)C2=O)cc1OC (stereo not given) |  | 35.9 µM (inactive) | 35.9 µM (inactive) | 11.7 µM (inactive) |  |
| NC1=NC[C@H](Cc2ccc(O)cc2)N1CCC12CC3CC(CC(C3)C1)C2 | 18.5 µM (active) |  |  |  | EC50 [4]: > 160 µM (inactive); IC50 [5]: > 20 µM (inactive) |
| COC1=C(Nc2ccc(O)cc2)C(=O)c2ccccc2C1=O |  |  |  |  | IC50 [6]: 24.4 µM (active); AC50 [7]: 5.14 µM (active); EC50 (Protein RecA): 1.16 µM (active); IC50 (Nonstructural protein 1): 24.7 µM (active); IC50 (Large T antigen): 9.88 µM (active); CC50 [8]: 56.8 µM (active); AC50 [9]: > 380 µM (inactive) |
| CCN(CC)CC(O)Cn1c(C)c(-c2ccccc2)c2cc([N+](=O)[O-])ccc21 (stereo not given) | 8.3 µM (active) |  |  |  |  |
| CCOc1ccccc1CN(CCc1ccc2c(c1)OCO2)Cc1ccccn1 |  |  |  |  | IC50 [6]: 172 µM (active); EC50 [10]: > 112 µM (not active); EC50 [11]: > 112 µM (not active); CC50 [8]: 100 µM (active) |
| COc1ccc(S(=O)(=O)N2CCN(CC(=O)Nc3ccc(C)c(F)c3)CC2)cc1 |  | 35.9 µM (inactive) | 6.16 µM (active) | 3.05 µM (active) |  |
| CCN1/C(=C/c2ccc3cc(C)ccc3[n+]2CC)Sc2cc(C)ccc21 |  |  |  |  | IC50 [6]: 80.4 µM (active); CC50 [8]: 23.1 µM (active); AC50 [12]: 3.75 µM (active) |
| COc1cc2nc(N(CCCN(C)C)C(=O)c3ccc(C(=O)c4ccccc4)cc3)sc2cc1OC | 15.8 µM (active) |  |  |  |  |
| O=C(Nc1cccc(Cl)c1N1CCOCC1)c1ccc([N+](=O)[O-])o1 |  |  |  |  | CC50 [13]: > 40 µM (active) |
| COC(=O)c1ccc(NC(=O)CSc2nncn2-c2cccnc2)cc1 |  | 35.9 µM (inactive) | 35.9 µM (inactive) | 14 µM (inactive) |  |
| CN(C)CCOc1ccc2c(c1)C(=O)C(=Cc1ncc([N+](=O)[O-])n1C)C2 | 7.08 µM (active) |  |  |  | AC50 (Paired box protein Pax-8): 1.89 µM (active) |
| CC(O)(c1cccc(F)c1)c1nc(-c2ccc(S(C)(=O)=O)cc2)cs1 (stereo not given) |  | 35.9 µM (inactive) | 10.3 µM (inactive) | 3.64 µM (active) |  |
| N#Cc1cc([N+](=O)[O-])ccc1NC(=O)COC(=O)C1CCC(=O)N1 (stereo not given) |  | 35.9 µM (inactive) | 6.37 µM (active) | 4.87 µM (active) |  |
| O=C(N/N=C/c1cc([N+](=O)[O-])ccc1O)C1CC1 |  |  |  |  | CC50 [13]: > 40 µM (active) |
| CCCN1C(=O)/C(=C/c2cc(C)n(C)c2C)S/C1=N/c1ccc(OCC)cc1 |  |  |  |  | CC50 [8]: 100 µM (active) |

From ChEMBL document CHEMBL1201862, “PubChem BioAssay data set” (2004)
